Data reported in patent US20100120690A1, “Polypeptides Having Antimicrobial Activity and Polynucleotides Encoding Same” (Novozymes Adenium Biotech A/S, priority 2005, published 2010).

Columns and labels:
B. subtilis [1] = experiment: Minimal Inhibitory Concentration, NCCLS guidelines (Example 4); type: cell-based, Bacillus subtilis; details: purified peptide
Method: The Minimal Inhibitory Concentration (MIC, micrograms/mL) was determined to test for their antimicrobial activity following the NCCLS guidelines (Clinical and Laboratory Standards Institute; formerly known as National Committee for Clinical and Laboratory Standards).

[2] = system: Staphylococcus carnosus ATCC51365; experiment: Yeast screening assay: radial diffusion assay of yeast supernatants; type: cell-based; parameters: key: An activity of 3 is better than Plectasin; An activity of 2 corresponds to the activity of Plectasin; 1 is worse than Plectasin; details: yeast supernatant, clearing zone in radial diffusion assay
Summary of the method: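 Activity scores (1 worse, 2 equal, 3 better than wild-type plectasin) come from the size of the radial-diffusion clearing zone against S. carnosus at 5×10^5 cfu/mL. Test samples were culture supernatants of yeast transformants induced with galactose for 3 days at 30 °C, and plates were developed at 37 °C with MTT.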

Staphylococcus carnosus = experiment: TAPS (Trans Acting Peptide System) assay, radial diffusion read-out; type: cell-based; parameters: key: classified as 4>3>2>1; whereas 4 is better than 1; classified as 4>3>2>1; classified as 4>3>2>1; wildtype activity corresponds to 1; details: peptide expressed in E. coli
Method: A range of antimicrobial polypeptides, which are variants of SEQ ID NO: 1, were tested in the TAPS assay. TAPS may be used to identify new or improved genes encoding peptides that can kill or inhibit the growth of target cells (see PCT application WO 2004/033715). The TAPS assay, an acronym for Trans Acting Peptide System, is based on having a sensitive host producing a peptide followed by screening for its activity in trans against an indicator strain. The advantage of this system is based on that the antimicrobial peptide is expressed in the Gram-negative bacterium E. coli and its antimicrobial activity can be monitored on different microbes including Gram-negatives, positives or fungi. Additionally, TAPS offers the possibility to produce correctly folded AMPs containing disulfide bonds in the host cells, thereby retaining their antimicrobial activities.
The TAPS approach requires first, that expression of the peptide is under control of an inducible promoter with tight regulation, because the host cells are sensitive to the peptide when producing it. Secondly, the produced peptide has to be released to the media so that it can interact with the target organism.
The TAPS screening can be carried out either in solid or liquid media. On solid media, a plasmid library is initially introduced into E. coli host cells. […] In the next step, the filter containing the colonies is transferred to LB growth medium containing inducer (0.1% arabinose) to permit peptide synthesis. Subsequently, the target strain, for example S. carnosus, is overlaid onto the plate and allowed to grow for 12-16 hours at 37° C. Finally, visual inspection of the host cells capable of reducing the proliferation of the target cells is performed and the nucleotide sequence encoding for the antimicrobial peptide is recovered from the host cells. DNA sequence analysis of the variants is obtained to elucidate the nature of the peptide.
As mentioned above, the TAPS screening can also be performed using liquid medium. This procedure requires the use of robotics to analyze large number of clones. In this system, the host E. coli origami cells are transformed with the plasmid library and plated out on LB medium+0.2% glucose+ampicillin (200 mg/L). Independent colonies are then inoculated into 96 or 384-well plates containing 200 micro-L of TB medium+ampicillin (200 mg/L) and cultured overnight at 37° C. These cultures are then replicated robotically and grown to exponential phase until inducer (0.1% arabinose) is added to trigger peptide synthesis. The next step consists in hydrolyzing the cells such that the peptide is released to the media by hot acid hydrolysis. This treatment consists on adding 1 M sodium Phosphate buffer pH 2.3 to obtain a final pH approximately of 2.3 and incubating the cultures overnight at 80° C. Next day, a 25 micro-L aliquot of the hydrolyzed cultures is used to perform an activity test against the desired target organisms. The activity test performed was a Radial Diffusion Assay (RDA) where an aliquot of the hydrolyzed cultures was added to the agarose media inoculated with the target strain, S. carnosus. […] Measurements of the diameter of the clearing zones were performed to quantify the potency of the antimicrobial activity of the peptides.
The antimicrobial activity (against Staphylococcus carnosus) of the tested plectasin variants, which was measured using the TAPS assay, is shown in table 3. The antimicrobial activity corresponds to the clearing zone size and has been classified as 4>3>2>1; whereas 4 is better than 1, and wildtype activity corresponds to 1.

B. subtilis [3] = experiment: Minimal Effective Concentration (MEC) assay; type: cell-based, Bacillus subtilis
Method: Three antimicrobial polypeptides, which are variants of SEQ ID NO: 1, were tested for antimicrobial activity. A Minimal Effective Concentration assay (MEC, expressed as micrograms/mL) against different microorganisms was performed using the three plectasin mutants, Y40YR, N17R and Y25R following the protocol described in the book of Methods in Molecular Biology, Vol. 78, Antibacterial peptide protocol William M. Shafer, Human Press.

In the case of “GFGCNGPWDEDDMQCHNHCKSIKGYKGGYCAKGGFVCKCY (listed as Pseudoplectania nigrella) [wildtype, wildtype plectasin, parent antimicrobial polypeptide, reference compound]”, the “MIC against B. subtilis” value (B. subtilis [1]) is reported as 1 micrograms/mL, the “Activity (antimicrobial activity relative to the activity of plectasin)” value [2] is reported as 2 and the “Activity (antimicrobial activity, clearing zone size)” value (Staphylococcus carnosus) is reported as 1. For the same sequence, the “MEC against B. subtilis” value (B. subtilis [3]) was 0.09 micrograms/mL.
